The values below come from patent US11485735B2, “Selective CDK4/6 inhibitor and preparation thereof” (Wuxi Shuangliang Biotechnology Co., Ltd., priority 2019, dated 2022).

Molecules are shown by their SMILES. Counter-ions that a name gives are not always drawn.

One experiment has as its target CDK2 (Homo sapiens, UniProt P24941). Put plainly: In-vitro kinase inhibitory activity, CDK2 (selectivity). The experiment is classed as biochemical. To be noted: read-out: IC50 (half maximal inhibitory concentration, nM) CDK2.
A further experiment deals with T1, CDK6/CyclinD3 (Homo sapiens, UniProt Q00534).
T1 construct: purchased Wuxi Biortus Biosciences Co. Ltd
Put plainly: In-vitro kinase inhibitory activity, CDK6/CyclinD3 (Caliper EZ Reader II mobility shift). In kind it is biochemical. To be noted: CDK6/CyclinD3 20 nM, ATP 2 mM, Peptide 1 μM, 27° C., 120 min; read-out: IC50 (half maximal inhibitory concentration, nM) CDK6. The procedure:
The final volume for assay was 16 μL, and the reaction temperature was 27° C. […] The compound was dissolved in dimethyl sulfoxide (DMSO) to reach a concentration of 10 mM. […] 2 μL of the test compound solution was mixed with 5 μL of the kinase solution, and the mixture was incubated for 10 min. 5 μL of the mixed solution of the polypeptide substrate and ATP was then added. The mixture was incubated at 27° C. for 120 min, and then the reaction was terminated by adding 4 μL of EDTA with a concentration of 120 mM to each sample. […] Each assay was conducted in at least two replicates.
(§1) The final concentrations of the reagents in the assay were as follows. […] The reaction mixture was analyzed on a Caliper EZ Reader II by electrophoretic separation of the fluorescent substrate and the phosphorylated product. Data were calculated by using GraphPad Prism version 6.0 and IC50 values were obtained by adjusting the non-linear regression models of the dose response curves.

A further experiment concerns the target CDK9 (Homo sapiens, UniProt P50750). Put plainly: In-vitro kinase inhibitory activity, CDK9 (selectivity). In kind it is biochemical. To be noted: read-out: IC50 (half maximal inhibitory concentration, nM) CDK9.
The target of the next experiment is T2, CDK4/CyclinD3 (Homo sapiens, UniProt P11802).
T2 construct: purchased Wuxi Biortus Biosciences Co. Ltd
Put plainly: In-vitro kinase inhibitory activity, CDK4/CyclinD3 (Caliper EZ Reader II mobility shift). The experiment is classed as biochemical. To be noted: CDK4/CyclinD3 20 nM, ATP 2 mM, Peptide 1 μM, 27° C., 180 min; read-out: IC50 (half maximal inhibitory concentration, nM) CDK4. On the procedure: The final volume for assay was 16 μL, and the reaction temperature was 27° C. CDK4/CyclinD3 was produced by Wuxi Biortus Biosciences Co. Ltd. The concentration of the kinase was determined by the results of the optimization experiment. The kinase was diluted with an assay buffer (50 mM Tris HCl pH 8.0, 0.01% Tween 20, 50 μg/mL BSA, and 5 mM MgCl2) to obtain a corresponding kinase solution (2.4× concentration). The compound was dissolved in dimethyl sulfoxide (DMSO) to reach a concentration of 10 mM. […] 2 μL of the test compound solution was mixed with 5 μL of the kinase solution, and the mixture was incubated for 10 min. 5 μL of the mixed solution of the polypeptide substrate and ATP was then added. The mixture was incubated at 27° C. for 180 min, and then the reaction was terminated by adding 4 μL of EDTA with a concentration of 120 mM to each sample. […] Each assay was conducted in at least two replicates.
as §1

Experiment [1] deals with human breast cancer MCF-7 cells. The experiment in a line: Growth inhibition of tumor cells cultured in vitro, CellTiter-Glo, MCF-7. The experiment is classed as cell-based. To be noted: for IC50: MCF-7, 72 h, CellTiter-Glo; for inhibitory effect on human breast cancer MCF-7 cells (in words): summary of the table. The source says:
(§2) Test drugs: Compounds of the present disclosure. Tumor cell strains: human colon cancer COLO205 cells and human breast cancer MCF-7 cells.
(§3) The growth inhibitory effects on human tumor cells COLO205 and MCF-7 cultured in vitro were observed by using a CellTiter-Glo Luminescent Cell Viability Assay Kit (Promega, Cat. No. G7572). Human tumor cells COLO205 and MCF-7 were both purchased from the American Type Culture Collection.
(§4) CellTiter-Glo Luminescent Cell Viability Assay: The previous cell culture medium was discarded, and the tumor cells were rinsed twice with PBS. An appropriate amount of trypsin (VWR, Cat. No. 0458-25G) was added to digest the tumor cells until most of the cells turned round and were detached from the wall. The trypsin digestion was terminated by adding an RPMI-1640 medium (COLO205; Gibco, Cat. No. A10491-01) containing 10% fetal bovine serum (Hyclone, Cat. No. SV30160.03) and MEM medium (MCF-7; Gibco, Cat. No. 10370-021) containing 10% fetal bovine serum and 0.01 mg/mL insulin, and the cells were gently pipetted with a pipette to completely suspend the tumor cells. After cell counting, a tumor cell suspension was prepared using a complete culture medium and the final concentration was 6.7×10^4 cells/mL. 90 μL of the tumor cell suspension was seeded in each well of a 96-well culture plate (6000 cells/well). The plate was then placed in an incubator with 5% CO2 at 37° C. and incubated for 24 h. A test drug was added by using an Agilent Bravo Automated Liquid Handling Platform, and 10 μL of the sample was added in each well. The assay was conducted in triplicate for each group. A compound of the present disclosure was dissolved in DMSO (BioRoYee, Cat. No. AF0231), and then the resulting solution was diluted to 10 μM/L, 3.33 μM/L, 1.11 μM/L, 0.37 μM/L, 0.123 μM/L, 0.041 μM/L, 0.0137 μM/L, 0.0046 μM/L, and 0.0015 μM/L with the culture medium. The concentration of DMSO was lower than 0.1%, and a culture medium containing 0.1% DMSO was added to the well which was set as a vehicle control group. The 96-well plate was placed in an incubator with 5% CO2 at 37° C. and incubated for 72 h. The 96-well plate to be tested was equilibrated at room temperature for 30 min, and 100 μL of Cell Titer-Glo reagent was added to each well. The contents of each well were mixed in an orbital shaker for 2 min to induce cell lysis, and the plate was incubated at room temperature for 10 min to achieve a constant value of fluorescent intensity. Finally, the chemiluminescence intensity was detected by TECAN M1000. Data were processed with Graphpad Prism 6.0 software. The growth curve of the cells was plotted. The cell growth inhibition rate of a drug was calculated, and the half maximal inhibitory concentration (IC50) of the drug was determined.

The test system of experiment [2] is human colon cancer COLO205 cells. Put plainly: Growth inhibition of tumor cells cultured in vitro, CellTiter-Glo, COLO205. The experiment is classed as cell-based. To be noted: COLO205, 72 h, CellTiter-Glo.
Description: as §2, §3, §4

T1 sequence (Q00534 whole entry, species assumed): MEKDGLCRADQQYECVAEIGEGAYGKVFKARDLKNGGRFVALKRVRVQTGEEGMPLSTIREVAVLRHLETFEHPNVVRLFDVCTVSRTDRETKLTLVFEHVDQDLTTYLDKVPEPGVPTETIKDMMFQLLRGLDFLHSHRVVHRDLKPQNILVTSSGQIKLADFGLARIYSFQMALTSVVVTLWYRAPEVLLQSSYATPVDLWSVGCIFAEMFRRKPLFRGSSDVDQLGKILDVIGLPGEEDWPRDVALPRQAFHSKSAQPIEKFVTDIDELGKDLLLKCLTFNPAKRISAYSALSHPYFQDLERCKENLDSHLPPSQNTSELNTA
T1 sequence (P30281 whole entry partner, species assumed): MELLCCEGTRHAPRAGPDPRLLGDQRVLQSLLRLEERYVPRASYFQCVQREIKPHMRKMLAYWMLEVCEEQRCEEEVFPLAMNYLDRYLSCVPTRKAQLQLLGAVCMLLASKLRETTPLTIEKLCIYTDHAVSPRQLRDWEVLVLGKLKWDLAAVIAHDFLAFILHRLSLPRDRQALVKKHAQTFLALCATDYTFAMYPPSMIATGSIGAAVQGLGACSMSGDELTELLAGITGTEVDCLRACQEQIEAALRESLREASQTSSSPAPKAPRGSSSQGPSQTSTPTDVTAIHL
CDK9, sequence (P50750 whole entry, species assumed): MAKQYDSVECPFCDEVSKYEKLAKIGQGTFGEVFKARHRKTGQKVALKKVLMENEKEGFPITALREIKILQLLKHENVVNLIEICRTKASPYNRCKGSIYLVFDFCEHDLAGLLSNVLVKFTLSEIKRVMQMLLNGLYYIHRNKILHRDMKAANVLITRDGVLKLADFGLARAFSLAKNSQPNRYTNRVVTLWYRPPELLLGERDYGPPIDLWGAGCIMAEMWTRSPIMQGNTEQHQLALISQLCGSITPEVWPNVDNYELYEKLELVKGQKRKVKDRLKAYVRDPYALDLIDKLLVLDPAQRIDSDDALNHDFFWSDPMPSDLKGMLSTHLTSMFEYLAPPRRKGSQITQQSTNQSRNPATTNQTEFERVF
CDK9, sequence (O60563 whole entry partner, species assumed): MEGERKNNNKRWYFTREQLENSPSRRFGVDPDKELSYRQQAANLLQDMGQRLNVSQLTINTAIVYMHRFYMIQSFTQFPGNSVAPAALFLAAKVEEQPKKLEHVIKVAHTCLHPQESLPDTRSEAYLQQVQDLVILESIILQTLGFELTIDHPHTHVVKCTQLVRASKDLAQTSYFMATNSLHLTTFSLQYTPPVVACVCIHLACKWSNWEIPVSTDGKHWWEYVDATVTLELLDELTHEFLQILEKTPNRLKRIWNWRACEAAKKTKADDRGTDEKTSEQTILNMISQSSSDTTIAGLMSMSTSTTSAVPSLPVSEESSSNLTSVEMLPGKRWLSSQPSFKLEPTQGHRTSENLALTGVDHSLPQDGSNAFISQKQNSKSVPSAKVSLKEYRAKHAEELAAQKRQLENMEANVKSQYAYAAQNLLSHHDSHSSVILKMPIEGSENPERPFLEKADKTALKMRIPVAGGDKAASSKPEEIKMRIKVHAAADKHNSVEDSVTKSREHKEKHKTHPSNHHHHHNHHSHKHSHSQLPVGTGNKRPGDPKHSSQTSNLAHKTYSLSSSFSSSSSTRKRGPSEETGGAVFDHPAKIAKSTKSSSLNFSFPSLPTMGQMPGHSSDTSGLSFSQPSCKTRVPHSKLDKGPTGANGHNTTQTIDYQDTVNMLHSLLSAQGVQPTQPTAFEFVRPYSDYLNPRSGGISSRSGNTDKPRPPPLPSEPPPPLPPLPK
T2 sequence (P11802 whole entry, species assumed): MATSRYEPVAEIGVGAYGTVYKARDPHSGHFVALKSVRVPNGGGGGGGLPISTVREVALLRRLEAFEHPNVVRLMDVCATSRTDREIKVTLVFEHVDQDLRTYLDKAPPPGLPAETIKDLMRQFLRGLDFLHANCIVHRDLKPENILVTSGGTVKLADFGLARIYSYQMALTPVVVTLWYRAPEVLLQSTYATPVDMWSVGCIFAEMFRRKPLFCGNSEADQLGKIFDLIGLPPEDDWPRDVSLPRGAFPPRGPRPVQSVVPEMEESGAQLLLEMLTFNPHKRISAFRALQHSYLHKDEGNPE
T2 sequence (P30281 whole entry partner, species assumed): as the sequence (P30281 whole entry partner, species assumed) above

As to `CC(=O)c1c(C)c2cnc(Nc3ccc(N4CCN(CCN5CCC(CC6CCN(c7ccc8c(c7)CN(C7CCC(=O)NC7=O)C8=O)CC6)CC5)CC4)cn3)nc2n(C2CCCC2)c1=O` (centres unmarked) [Compound 10, 3-(5-(4-((1-(2-(4-(6-((6-acetyl-8-cyclopentyl-5-methyl-7-oxo-7,8-dihydropyrido[2,3-d]pyrimidin-2-yl)amino)pyridin-3-yl)piperazin-1-yl)ethyl)piperidin-4-yl)methyl)piperidin-1-yl)-1-oxoisoindolin-2-yl)piperidine-2,6-dione], the IC50 was > 10000 nM on CDK2, 3.21 nM at CDK6/CyclinD3, 4150 nM on CDK9 and 11.5 nM at CDK4/CyclinD3.

In the case of `COc1cc(N2CCN(CCN3CCN(c4ccc(Nc5ncc6c(C)c(C(C)=O)c(=O)n(C7CCCC7)c6n5)nc4)CC3)CC2)cc2c1C(=O)N(C1CCC(=O)NC1=O)C2` (centres unmarked) [Compound 16, 3-(5-(4-(2-(4-(6-((6-acetyl-8-cyclopentyl-5-methyl-7-oxo-7,8-dihydropyrido[2,3-d]pyrimidin-2-yl)amino)pyridin-3-yl)piperazin-1-yl)ethyl)piperazin-1-yl)-7-methoxy-1-oxoisoindolin-2-yl)piperidine-2,6-dione], the IC50 was 26.4 nM at CDK6/CyclinD3; > 10000 nM in experiment [1] (Homo sapiens, MCF7, 72 h); 66.9 nM in experiment [2] (Homo sapiens, COLO 205, 72 h); > 10000 nM at CDK9; 60.1 nM at CDK4/CyclinD3.

For `COc1c(N2CCN(CCN3CCN(c4ccc(Nc5ncc6c(C)c(C(C)=O)c(=O)n(C7CCCC7)c6n5)nc4)CC3)CC2)ccc2c1CN(C1CCC(=O)NC1=O)C2=O` (centres unmarked) [Compound 18, 3-(5-(4-(2-(4-(6-((6-acetyl-8-cyclopentyl-5-methyl-7-oxo-7,8-dihydropyrido[2,3-d]pyrimidin-2-yl)amino)pyridin-3-yl)piperazin-1-yl)ethyl)piperazin-1-yl)-4-methoxy-1-oxoisoindolin-2-yl)piperidine-2,6-dione], the IC50 on CDK6/CyclinD3 was 37.8 nM; in experiment [1] (Homo sapiens, MCF7, 72 h), > 10000 nM; in experiment [2] it was 133 nM; on CDK9, > 10000 nM; at CDK4/CyclinD3, 99.5 nM.

As to `COc1c(N2CCN(CCN3CCN(c4ccc(Nc5ncc6c(C)c(C(C)=O)c(=O)n(C7CCCC7)c6n5)nc4)CC3)CC2)ccc2c1CN(C1CCC(=O)NC1=O)C2=O` (centres unmarked) [Compound 19, 3-(5-(4-(2-(4-(6-((6-acetyl-8-cyclopentyl-5-methyl-7-oxo-7,8-dihydropyrido[2,3-d]pyrimidin-2-yl)amino)pyridin-3-yl)piperazin-1-yl)ethyl)piperazin-1-yl)-4-methoxy-1-oxoisoindolin-2-yl)piperidine-2,6-dione dihydrochloride], the IC50 at CDK6/CyclinD3 was 20.5 nM; in experiment [1], > 10000 nM; in experiment [2] (dihydrochloride), 43.2 nM; on CDK9, 5610 nM; at CDK4/CyclinD3, 54.8 nM.

Take `CC(=O)c1c(C)c2cnc(Nc3ccc(N4CCN(CCN5CCN(c6c(F)cc7c(c6F)CN(C6CCC(=O)NC6=O)C7=O)CC5)CC4)cn3)nc2n(C2CCCC2)c1=O.Cl.Cl` (centres unmarked) [Compound 23, 3-(5-(4-(2-(4-(6-((6-acetyl-8-cyclopentyl-5-methyl-7-oxo-7,8-dihydropyrido[2,3-d]pyrimidin-2-yl)amino)pyridin-3-yl)piperazin-1-yl)ethyl)piperazin-1-yl)-4,6-difluoro-1-oxoisoindolin-2-yl) piperidine-2,6-dione dihydrochloride]: the IC50 stood at 22.1 nM on CDK6/CyclinD3, 13.5 nM in experiment [1] (dihydrochloride), 4580 nM at CDK9 and 48.8 nM on CDK4/CyclinD3. Also, the “inhibitory effect on human breast cancer MCF-7 cells (in words)” value in experiment [1] was “relatively good inhibitory effects”.

Turning to `CC(=O)c1c(C)c2cnc(Nc3ccc(N4CCN(CCN5CCN(c6cc7c(cc6F)C(=O)N(C6CCC(=O)NC6=O)C7)CC5)CC4)cn3)nc2n(C2CCCC2)c1=O.Cl.Cl` (centres unmarked) [Compound 27, 3-(5-(4-(2-(4-(6-((6-acetyl-8-cyclopentyl-5-methyl-7-oxo-7,8-dihydropyrido[2,3-d]pyrimidin-2-yl)amino)pyridin-3-yl)piperazin-1-yl)ethyl)piperazin-1-yl)-6-fluoro-1-oxoisoindolin-2-yl)piperidine-2,6-dione dihydrochloride], the IC50 at CDK6/CyclinD3 was 29.6 nM; in experiment [1] (Homo sapiens, MCF7, 72 h), 71.6 nM; on CDK9 it was > 10000 nM; on CDK4/CyclinD3, 45.4 nM. Moreover, the “inhibitory effect on human breast cancer MCF-7 cells (in words)” value in experiment [1] is reported as “relatively good inhibitory effects”.

Turning to `CN(C)C(=O)c1cc2cnc(Nc3ccc(N4CCN(CCN5CCC(CN6CCN(c7ccc8c(c7)CN([C@H]7CCC(=O)NC7=O)C8=O)CC6)CC5)CC4)cn3)nc2n1C1CCCC1` [Compound 29, (S)-7-cyclopentyl-2-((5-(4-(2-(4-((4-(2-(2,6-dioxopiperidin-3-yl)-1-oxoisoindolin-5-yl)piperazin-1-yl)methyl)piperidin-1-yl)ethyl)piperazin-1-yl)pyridin-2-yl)amino)-N,N-dimethyl-7H-pyrrolo[2,3-d]pyrimidin-6-amide trihydrochloride], the IC50 at CDK6/CyclinD3 is 42.1 nM; in experiment [1] (Homo sapiens, MCF7, 72 h), 106 nM; at CDK9, 3650 nM; at CDK4/CyclinD3, 37.8 nM.

With `CC(=O)c1c(C)c2cnc(Nc3ccc(N4CCN(CCN5CCC(CN6CCN(c7c(F)cc8c(c7F)CN(C7CCC(=O)NC7=O)C8=O)CC6)CC5)CC4)cn3)nc2n(C2CCCC2)c1=O` (centres unmarked) [Compound 34, 3-(5-(4-((1-(2-(4-(6-((6-acetyl-8-cyclopentyl-5-methyl-7-oxo-7,8-dihydropyrido[2,3-d]pyrimidin-2-yl)amino)pyridin-3-yl)piperazin-1-yl)ethyl)piperidin-4-yl)methyl)piperazin-1-yl)-4,6-difluoro-1-oxoisoindolin-2-yl)piperidine-2,6-dione trihydrochloride], the IC50 at CDK6/CyclinD3 worked out at 9.84 nM; in experiment [1] (Homo sapiens, MCF7, 72 h), 442 nM; in experiment [2] (Homo sapiens, COLO 205, 72 h), 68.8 nM; at CDK9 it was 1560 nM; at CDK4/CyclinD3, 17.6 nM.
